Experimental data: ChEMBL document CHEMBL3608214, “Optimization of Novel Antagonists to the Neurokinin-3 Receptor for the Treatment of Sex-Hormone Disorders (Part II)” (ACS Med Chem Lett, 2015)

Key:
Neuromedin-K receptor [1] = molecular target: T1, Neuromedin-K receptor (Rattus norvegicus, UniProt P16177); test: Binding affinity to rat NK3R
T1 sequence (P16177 whole entry): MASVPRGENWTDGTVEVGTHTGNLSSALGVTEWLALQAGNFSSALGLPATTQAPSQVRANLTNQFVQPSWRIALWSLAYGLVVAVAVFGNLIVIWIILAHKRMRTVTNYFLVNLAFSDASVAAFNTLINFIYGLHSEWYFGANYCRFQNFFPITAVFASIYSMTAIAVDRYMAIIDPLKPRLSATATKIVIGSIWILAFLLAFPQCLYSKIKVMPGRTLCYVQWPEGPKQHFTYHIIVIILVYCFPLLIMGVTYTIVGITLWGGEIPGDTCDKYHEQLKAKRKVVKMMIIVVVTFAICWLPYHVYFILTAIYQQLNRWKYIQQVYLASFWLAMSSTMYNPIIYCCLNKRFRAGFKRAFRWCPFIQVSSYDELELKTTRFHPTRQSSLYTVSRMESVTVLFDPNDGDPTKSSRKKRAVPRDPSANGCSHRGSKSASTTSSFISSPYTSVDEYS

Neuromedin-K receptor [2] = molecular target: T2, Neuromedin-K receptor (Homo sapiens, UniProt P29371)
T2 sequence (P29371 whole entry): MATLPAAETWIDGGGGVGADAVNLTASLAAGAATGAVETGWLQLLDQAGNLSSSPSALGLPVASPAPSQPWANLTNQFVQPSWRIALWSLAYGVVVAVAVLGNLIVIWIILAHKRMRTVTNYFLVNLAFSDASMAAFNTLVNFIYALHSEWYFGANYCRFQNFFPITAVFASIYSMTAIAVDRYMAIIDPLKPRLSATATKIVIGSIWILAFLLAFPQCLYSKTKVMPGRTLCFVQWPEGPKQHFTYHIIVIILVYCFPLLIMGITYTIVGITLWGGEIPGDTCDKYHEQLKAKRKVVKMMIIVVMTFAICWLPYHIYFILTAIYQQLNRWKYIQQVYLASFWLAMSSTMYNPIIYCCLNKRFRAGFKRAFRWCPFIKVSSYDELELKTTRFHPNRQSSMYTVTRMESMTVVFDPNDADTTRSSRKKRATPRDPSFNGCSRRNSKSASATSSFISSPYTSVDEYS

Rattus norvegicus = test: Inhibition of luteinizing hormone release in orally dosed rat; conditions: po, read-out: MED
Neuromedin-K receptor [3] = molecular target: T2, Neuromedin-K receptor; remark: listed apart in the source
[4] = Distribution coefficient, log D of the compound at pH 7.4; format: physicochemical; conditions: octanol/water
[5] = Volume of distribution at steady state in rat at 1 mg/kg, iv; conditions: in vivo
[6] = Half life in rat at 1 mg/kg, iv; conditions: in vivo
Cytochrome P450 1A2 = molecular target: T3, Cytochrome P450 1A2 (Homo sapiens, UniProt P05177)
T3 sequence (P05177 whole entry): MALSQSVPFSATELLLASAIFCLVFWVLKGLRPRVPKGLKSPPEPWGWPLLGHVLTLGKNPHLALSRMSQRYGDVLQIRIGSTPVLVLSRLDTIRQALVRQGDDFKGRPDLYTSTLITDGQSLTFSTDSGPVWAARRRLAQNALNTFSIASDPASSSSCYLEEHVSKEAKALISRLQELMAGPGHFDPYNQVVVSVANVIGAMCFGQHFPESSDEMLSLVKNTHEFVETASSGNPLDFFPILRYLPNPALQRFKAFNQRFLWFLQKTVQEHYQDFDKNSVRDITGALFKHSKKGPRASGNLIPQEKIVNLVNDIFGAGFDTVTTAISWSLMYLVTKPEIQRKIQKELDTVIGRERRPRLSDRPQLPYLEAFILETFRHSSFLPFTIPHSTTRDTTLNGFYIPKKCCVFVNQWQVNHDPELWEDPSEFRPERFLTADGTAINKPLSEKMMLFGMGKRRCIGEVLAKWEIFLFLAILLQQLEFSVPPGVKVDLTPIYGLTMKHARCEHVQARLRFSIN
Description: Inhibition of CYP1A2 (unknown origin)

Cytochrome P450 2D6 = Cytochrome P450 2D6 (Homo sapiens, UniProt P10635)
Cytochrome P450 2D6, sequence (P10635 whole entry): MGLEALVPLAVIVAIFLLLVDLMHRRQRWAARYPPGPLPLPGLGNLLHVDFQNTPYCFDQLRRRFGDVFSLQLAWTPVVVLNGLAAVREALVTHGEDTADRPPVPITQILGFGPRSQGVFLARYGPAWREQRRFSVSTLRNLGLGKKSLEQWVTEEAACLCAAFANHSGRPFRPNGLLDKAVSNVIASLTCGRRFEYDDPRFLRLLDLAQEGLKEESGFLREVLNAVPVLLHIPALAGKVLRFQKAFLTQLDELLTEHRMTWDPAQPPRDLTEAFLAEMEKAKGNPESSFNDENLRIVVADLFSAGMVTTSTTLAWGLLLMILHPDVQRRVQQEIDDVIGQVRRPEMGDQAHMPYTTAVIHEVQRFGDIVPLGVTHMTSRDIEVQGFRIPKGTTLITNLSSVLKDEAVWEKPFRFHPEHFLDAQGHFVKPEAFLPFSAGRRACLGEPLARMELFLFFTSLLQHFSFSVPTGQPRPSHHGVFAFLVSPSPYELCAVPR
Description: Inhibition of CYP2D6 (unknown origin)

Cytochrome P450 2C19 = Cytochrome P450 2C19 (Homo sapiens, UniProt P33261)
Cytochrome P450 2C19, sequence (P33261 whole entry): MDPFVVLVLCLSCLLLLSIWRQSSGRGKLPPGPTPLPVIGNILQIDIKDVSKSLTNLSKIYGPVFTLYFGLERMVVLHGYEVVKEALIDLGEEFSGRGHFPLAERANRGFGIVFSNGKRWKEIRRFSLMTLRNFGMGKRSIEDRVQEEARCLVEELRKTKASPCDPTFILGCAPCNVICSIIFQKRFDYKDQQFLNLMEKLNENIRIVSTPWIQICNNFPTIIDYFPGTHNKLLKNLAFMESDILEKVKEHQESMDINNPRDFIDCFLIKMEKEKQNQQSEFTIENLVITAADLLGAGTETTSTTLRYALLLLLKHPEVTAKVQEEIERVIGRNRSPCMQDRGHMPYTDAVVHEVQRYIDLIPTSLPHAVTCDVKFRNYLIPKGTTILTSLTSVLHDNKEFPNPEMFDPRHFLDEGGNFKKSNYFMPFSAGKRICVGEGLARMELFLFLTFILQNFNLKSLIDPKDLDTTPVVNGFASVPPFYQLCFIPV
Description: Inhibition of CYP2C19 (unknown origin)

Cytochrome P450 3A4 = Cytochrome P450 3A4 (Homo sapiens, UniProt P08684)
Cytochrome P450 3A4, sequence (P08684 whole entry): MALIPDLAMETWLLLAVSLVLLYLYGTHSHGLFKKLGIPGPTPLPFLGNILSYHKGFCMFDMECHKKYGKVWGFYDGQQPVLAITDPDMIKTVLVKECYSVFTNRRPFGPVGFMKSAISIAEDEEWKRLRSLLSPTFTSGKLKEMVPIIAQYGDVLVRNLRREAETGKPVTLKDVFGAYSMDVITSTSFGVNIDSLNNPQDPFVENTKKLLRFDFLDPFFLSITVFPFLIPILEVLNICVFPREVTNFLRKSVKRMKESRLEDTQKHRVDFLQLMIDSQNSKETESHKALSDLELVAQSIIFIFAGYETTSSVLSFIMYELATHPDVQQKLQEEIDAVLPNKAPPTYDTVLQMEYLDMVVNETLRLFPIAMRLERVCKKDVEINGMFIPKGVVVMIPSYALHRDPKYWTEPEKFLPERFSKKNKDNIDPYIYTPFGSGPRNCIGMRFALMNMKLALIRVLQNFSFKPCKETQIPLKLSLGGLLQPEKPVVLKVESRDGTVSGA
Description: Inhibition of CYP3A4 (unknown origin)

Cytochrome P450 2C9 = Cytochrome P450 2C9 (Homo sapiens, UniProt P11712)
Cytochrome P450 2C9, sequence (P11712 whole entry): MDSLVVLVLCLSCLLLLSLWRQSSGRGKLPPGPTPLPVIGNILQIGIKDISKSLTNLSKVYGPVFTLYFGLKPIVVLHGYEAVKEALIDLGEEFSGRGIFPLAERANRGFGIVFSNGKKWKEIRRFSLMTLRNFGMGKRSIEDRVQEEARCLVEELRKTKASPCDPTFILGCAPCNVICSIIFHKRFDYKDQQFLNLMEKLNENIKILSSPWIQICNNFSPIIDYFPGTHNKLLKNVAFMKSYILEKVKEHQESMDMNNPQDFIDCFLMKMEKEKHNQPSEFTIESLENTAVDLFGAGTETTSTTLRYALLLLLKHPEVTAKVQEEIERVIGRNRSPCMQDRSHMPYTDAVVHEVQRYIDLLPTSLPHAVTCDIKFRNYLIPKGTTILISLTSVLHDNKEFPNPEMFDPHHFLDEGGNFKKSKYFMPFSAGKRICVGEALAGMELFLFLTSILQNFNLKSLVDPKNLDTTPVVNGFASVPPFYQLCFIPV
Description: Inhibition of CYP2C9 (unknown origin)

[7] = Unbound fraction in rat brain at 1 mg/kg after 60 mins
[8] = molecular target: Voltage-gated inwardly rectifying potassium channel KCNH2 (Homo sapiens, UniProt Q12809)
Voltage-gated inwardly rectifying potassium channel KCNH2, sequence (Q12809 whole entry): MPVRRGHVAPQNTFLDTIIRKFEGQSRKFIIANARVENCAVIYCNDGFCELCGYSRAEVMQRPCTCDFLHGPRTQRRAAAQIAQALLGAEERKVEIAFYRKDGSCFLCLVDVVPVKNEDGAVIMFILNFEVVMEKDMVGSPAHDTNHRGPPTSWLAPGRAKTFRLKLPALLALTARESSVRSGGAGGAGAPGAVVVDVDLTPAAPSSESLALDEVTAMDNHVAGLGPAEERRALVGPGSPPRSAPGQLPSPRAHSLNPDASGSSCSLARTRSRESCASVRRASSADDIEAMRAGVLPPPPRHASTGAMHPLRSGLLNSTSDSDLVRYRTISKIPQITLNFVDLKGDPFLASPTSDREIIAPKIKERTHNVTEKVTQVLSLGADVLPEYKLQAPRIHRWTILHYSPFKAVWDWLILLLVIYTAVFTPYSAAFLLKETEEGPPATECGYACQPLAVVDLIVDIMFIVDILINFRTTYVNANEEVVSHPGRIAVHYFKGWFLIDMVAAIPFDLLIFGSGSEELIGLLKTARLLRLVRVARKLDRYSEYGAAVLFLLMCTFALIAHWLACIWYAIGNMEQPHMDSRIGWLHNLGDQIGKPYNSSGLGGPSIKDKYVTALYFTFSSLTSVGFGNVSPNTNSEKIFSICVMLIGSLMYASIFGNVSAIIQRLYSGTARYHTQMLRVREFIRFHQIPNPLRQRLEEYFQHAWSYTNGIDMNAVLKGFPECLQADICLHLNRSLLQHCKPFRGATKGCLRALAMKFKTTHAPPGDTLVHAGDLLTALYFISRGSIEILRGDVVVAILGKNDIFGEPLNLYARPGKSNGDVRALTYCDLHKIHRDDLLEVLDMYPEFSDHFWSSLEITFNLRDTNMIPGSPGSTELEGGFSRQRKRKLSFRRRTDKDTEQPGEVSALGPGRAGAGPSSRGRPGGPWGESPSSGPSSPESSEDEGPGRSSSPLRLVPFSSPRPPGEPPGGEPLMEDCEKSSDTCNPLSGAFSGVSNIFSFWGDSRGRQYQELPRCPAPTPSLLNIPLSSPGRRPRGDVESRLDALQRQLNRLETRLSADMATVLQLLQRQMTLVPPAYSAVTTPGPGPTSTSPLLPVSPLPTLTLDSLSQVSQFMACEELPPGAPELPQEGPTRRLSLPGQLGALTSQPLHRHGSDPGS

Cynomolgus monkey = test: Inhibition of luteinizing hormone release in orally dosed castrated cynomolgus monkey; conditions: Macaca fascicularis, po, read-out: MED
[9] = Unbound fraction in monkey plasma at 5 mg/kg, po after 90 mins; conditions: rhesus monkey
[10] = Binding affinity to monkey NK3R
[11] = Volume of distribution at steady state in monkey at 10 mg/kg, iv; conditions: rhesus monkey, in vivo
[12] = Ratio of unbound drug concentration in brain to plasma of rat at 1 mg/kg after 60 mins

logD [4]	SMILES	Ki (Neuromedin-K receptor [1]) [nM]	Ki (Neuromedin-K receptor [2]) [nM]	minimal effective dose (Rattus norvegicus) [mg/kg]	IC50 (Neuromedin-K receptor [3]) [nM]	other results
–	Cc1nsc(-c2nnc3n2CCN(C(=O)c2ccccc2)[C@@H]3C)n1	573	50.1	30	63.1	–
0.8	Cc1nnc(-c2nnc3n2CCN(C(=O)c2ccc(F)cc2)[C@@H]3C)s1	–	–	–	–	–
1.7	CC(C)c1noc(-c2nnc3n2CCN(C(=O)c2ccc(F)cc2)[C@@H]3C)n1	–	25.1	–	39.8	–
1.1	C[C@@H]1c2nnc(-c3ncns3)n2CCN1C(=O)c1ccc(F)cc1	–	–	–	–	–
–	Cc1nsc(-c2nnc3n2CCN(C(=O)c2ccc(F)cc2)[C@@H]3C)n1 [FEZOLINETANT]	219	25.1	–	20	Vd [5]: 0.6 L/kg; half-life [6]: 4.65 h
–	Cc1nsc(-c2nnc3n2CCN(C(=O)c2ccc(F)cc2)C3)n1	2030	100	30	158	–
–	C[C@@H]1c2nnc(-c3nc(C(F)(F)F)ns3)n2CCN1C(=O)c1ccc(F)cc1	85	–	10	–	–
5	C[C@@H]1c2nnc(-c3csc(-c4ccc(F)cc4F)n3)n2CCN1C(=O)c1ccc(-c2cccs2)cc1	–	–	–	–	–
–	Cc1nsc(-c2nnc3n2CCN(C(=O)c2ccc(F)cc2)[C@@H]3CCO)n1	244	31.6	–	79.4	–
–	Cc1nsc(-c2nnc3n2CCN(C(=O)c2ccc(Cl)cc2)[C@@H]3C)n1	–	20	–	31.6	–
–	Cc1nc(-c2nnc3n2CCN(C(=O)c2ccc(-c4cccs4)cc2)[C@@H]3C)cs1	–	–	60	–	fraction unbound at 1 h [7]: 0.028; IC50 [8]: 24000 nM; minimal effective dose (Cynomolgus monkey): 20 mg/kg; fraction unbound at […] [9]: 0.043; Ki [10]: 20 nM; Vd [11]: 1.52 L/kg; Kp uu at 1 h [12]: 0.14; logD ([4]; read-out: logD): 3.1

SMILES	logD [4]	Ki (Neuromedin-K receptor [1]) [nM]	Ki (Neuromedin-K receptor [2]) [nM]	minimal effective dose (Rattus norvegicus) [mg/kg]	IC50 (Neuromedin-K receptor [3]) [nM]	other results
Cc1noc(-c2nnc3n2CCN(C(=O)c2ccc(F)cc2)[C@@H]3C)n1	0.7	–	126	–	–	IC50 (Cytochrome P450 1A2): 86000 nM; IC50 (Cytochrome P450 2D6): > 100000 nM; IC50 (Cytochrome P450 2C19): 34000 nM; IC50 (Cytochrome P450 3A4): > 100000 nM; IC50 (Cytochrome P450 2C9): 42000 nM
Cc1nsc(-c2nnc3n2CCN(C(=O)c2ccc(F)cc2)C3(C)C)n1	2	–	–	–	–	IC50 (Cytochrome P450 1A2): 51000 nM; IC50 (Cytochrome P450 2D6): > 100000 nM; IC50 (Cytochrome P450 2C19): 4000 nM; IC50 (Cytochrome P450 3A4): > 100000 nM; IC50 (Cytochrome P450 2C9): 12000 nM
